Test results taken from ChEMBL document CHEMBL5725542, “Plasminogen activator inhibitor-1 inhibitors and methods of use thereof” (2017).

Legend:
[1] = Fluorometric PAI-1/uPA IC50 Plate Assay: To determine the efficacy of various synthesized compounds as PAI-1 inhibitors, a fluorometric plate assay was carried out to measure the half maximal inhibitory concentration (IC50) of these compounds on recombinant active human PAI-1 in vitro. An IC50 is a measure of the effectiveness of a compound in inhibiting biological or biochemical function. Stated another way, IC50 represents the concentration of a drug that is required for 50% inhibition in vitro. The IC50 of various compounds was measured using a fluorometric plate assay. PAI-1 inhibitor compounds were dissolved in DMSO to a final concentration of (10-50 mM), depending upon solubility. Compounds were then diluted in physiologic buffer (40 mM HEPES, 100 mM NaCl, 0.05% Tween-20, pH7.4) containing 10% DMSO and a dilution series (from 0 to 1000 uM depending on solubility) was prepared. 80 μL of compound was added per well to a 96-well black, opaque microplate in duplicate. 10 μL of 20 nM Recombinant active human PAI-1 (Molecular Innovations) in physiologic buffer (40 mM HEPES, 100 mM NaCl, 0.05% Tween-20, 10% DMSO, pH 7.4), or […] physiologic buffer with 10% human plasma, was added and the mixture was agitated for 15 minutes at room temperature. 10 μL of 25 nM uPA (Rheotromb®) was added to each reaction well and the plate was agitated for an additional 30 minutes at room temperature. Tripeptide aminomethylcoumarin Gly-Gly-Arg-AMC (Calbiochem) fluorogenic substrate (100 μL of 100 μM) was then added and residual uPA activity was determined based upon cleavage of this substrate. The rate of AMC release by uPA (fluorescence) was measured at an excitation wavelength of 370 nm and an emission wavelength of 440 nm. Controls included PAI-1 and uPA in the absence of compound and uPA alone. Percent PAI-1 inhibition was calculated using the following formula: [(uPA alone-uPA/PAI-1+ compound)/(uPA alone-PAI-1/uPA)]*100%. The IC50 was calculated using Graphit (IC50 0-100%).
[2] = (§1) Fluorometric PAI-1/uPA IC50 Plate Assay (10% plasma buffer): To determine the efficacy of various synthesized compounds as PAI-1 inhibitors, a fluorometric plate assay was carried out to measure the half maximal inhibitory concentration (IC50) of these compounds on recombinant active human PAI-1 in vitro. An IC50 is a measure of the effectiveness of a compound in inhibiting biological or biochemical function. Stated another way, IC50 represents the concentration of a drug that is required for 50% inhibition in vitro. The IC50 of various compounds was measured using a fluorometric plate assay. PAI-1 inhibitor compounds were dissolved in DMSO to a final concentration of (10-50 mM), depending upon solubility. Compounds were then diluted in physiologic buffer (40 mM HEPES, 100 mM NaCl, 0.05% Tween-20, pH7.4) containing 10% DMSO and a dilution series (from 0 to 1000 uM depending on solubility) was prepared. 80 μL of compound was added per well to a 96-well black, opaque microplate in duplicate. 10 μL of 20 nM Recombinant active human PAI-1 (Molecular Innovations) in physiologic buffer (40 mM HEPES, 100 mM NaCl, 0.05% Tween-20, 10% DMSO, pH 7.4), or […] physiologic buffer with 10% human plasma, was added and the mixture was agitated for 15 minutes at room temperature. […]
[3] = as §1, with “(1.5% BSA” for “(10% plasma”

| IC50 [1] [µM] | IC50 [2] [µM] | IC50 [3] [µM] | Structure (SMILES) |
| --- | --- | --- | --- |
| 2560 | – | – | NNC(=O)C(=O)NCCc1ccc(CO)c(CO)c1 |
| 4320 | – | – | COc1cc(CO)cc(CNC(=O)C(=O)NN)c1 |
| 2280 | – | – | COc1cc(CO)ccc1CNC(=O)C(=O)NN |
| 5470 | 851 | 892 | [C-]#[N+]c1ccc(CNC(=O)C(=O)NN)cc1 |
